From patent US20260048205A1, “SYSTEMS AND METHODS FOR MIXING SYRINGE VALVE ASSEMBLIES AND SYRINGE FORMULATIONS” (Tolmar International Limited, priority 2024, published 2026)

Key:
[1] = assay type: physicochemical
Description: To produce the drug/solvent bulk solution comprising the API (LA), the desired amount of the LA was combined with the solvent N-methyl-2-pyrrolidone (NMP), in the indicated amounts (see individual experiments below). The API and solvent were combined in a glass vial or jar. Jars were mixed using the jar mill, Turbula, or shaker at room temperature until homogeneous. LA is soluble in NMP and can load higher concentrations (at least 40% w/w). After dissolving the API in the organic solvent, the bulk solution was manually filled into syringes and capped with a tip cap. The syringes used for filling were either 1.2 mL male polypropylene syringes, 1.2 mL male cyclic olefin copolymer syringes or 1 mL male cyclic olefin copolymer syringes. In some instances, the two syringes were coupled via the connector prior to packaging. Filled syringes were then packaged in labeled foil pouches or a plastic tray pack with foil lid with a Syringe A (polymer-solvent solution) and a desiccant pack and the pouches were sealed. After filling the syringes with the formulations, they were terminally sterilized with an external radiation dose of more than 15 kGy and less than 60 kGy from irradiation processing (E-beam, Gamma or X-ray). After terminal sterilization, the syringes were stored under refrigerated conditions (e.g., 2-8° C.) or accelerated conditions (>25° C. see individual experiments).

LA gelation studies = assay type: physicochemical; settings: drug solution in NMP; e-beam irradiated; 60° C., 150 rpm, up to 16 days
Protocol: Drug solutions were prepared as described above and filled into syringes or glass vials. Syringes were untreated, contained various amounts of silicone, or were plasma coated for lubrication. Samples were irradiated by e-beam irradiation at not less than 25 kGy and stored at accelerated conditions of 60° C. with agitation at 150 rpm for up to 16 days. Samples were inspected periodically to determine if the drug solution remained a solution or had formed a solid/gel by an inversion test. Samples that had “gelled” were transferred to 5° C. for subsequent testing. The gelation rate for each sample was calculated as Rate=1/(simulated 5° C. age at time of gelation in days). The Arrhenius equation was used to determine the simulated age, assuming standard reaction rate doubling for every 10° C. increase in temperature. […] Data was analyzed using JMP. […] Container type and lubrication were not significant. Samples were tested for leuprolide content by HPLC. Leuprolide content was then converted to leuprolide acetate by multiplying by 1.078 (based on molecular mass ratios). A marked difference in leuprolide acetate content between the gelled and non-gelled samples was seen, with the tipping point between solution and solid/gelled samples occurring at about 45% LA.

solubility / loading in NMP [1]: at least 40 % w/w
tipping point between solution and solid/gelled samples (LA gelation studies): about 45 % LA
Compound: CCNC(=O)[C@@H]1CCCN1C(=O)[C@H](CCCNC(=N)N)NC(=O)[C@H](CC(C)C)NC(=O)[C@@H](CC(C)C)NC(=O)[C@H](Cc1ccc(O)cc1)NC(=O)[C@H](CO)NC(=O)[C@H](Cc1c[nH]c2ccccc12)NC(=O)[C@H](Cc1c[nH]cn1)NC(=O)[C@@H]1CCC(=O)N1 [LA, leuprolide acetate]
